From a melting point compilation (Tetko et al.; mined from patent text by program, amines drawn as free bases though some values may be those of a salt) come the findings set out here.

Usually melting point stands for the temperature, or range, at which the solid turns liquid.

For the molecule `CCCCC[C@H]1CC[C@H](c2ccc(-c3ccc(CCc4ccc(OCC)cc4)cc3)cc2F)CC1`, the melting point came to 133 °C.

For `CCc1c(C(=O)OC)[nH]c(=O)c(CC(C)C)[n+]1[O-]`, the melting point fell in the range of 143 to 146 °C.

As to `CCc1nn(C(=O)Oc2ccccc2)c(=O)n1C`, the melting point was determined as 141 °C.

`O=C(O)C1=Cc2cc(F)cc(Br)c2OC1C(F)(F)F` (stereo unspecified) displayed a melting point of over 300 °C.

In the case of `Clc1ccc2c(c1)C(c1ccccc1Cl)=NCCN2C1=NCCS1`, the melting point was 123 to 124 °C.

`CCCCCCCCC=CCCCCCCCCn1c(=O)[nH][nH]c1=O` gave a melting point of 120 °C.

On to `CCOc1ccc(C2=NNC(=O)[C@H]3CC=CC[C@@H]23)cc1OCC` (relative stereo), for which the melting point is 145 to 147 °C.

Consider `O=C(O)CC1c2ccccc2C(=O)N1c1ccccc1` (stereo unspecified), for which the melting point lay in the range of 204 to 205 °C.

In turn, `Cc1cccc(OCC2=NCCN2S(C)(=O)=O)c1C` had a melting point of 142 to 143 °C.

`COC(=O)Cc1cc(C(C)=O)ccc1OCc1ccccc1` gave a melting point of 85 to 87 °C.

`C=CCC1(CC=C)c2cccc(Cl)c2C(=O)c2c(OC)cccc21` showed a melting point of 151 to 153 °C.

`CCCCN(CCCC)c1ccc(C=Cc2cc(C)c(C=CC3=C(C#N)C(=C(C#N)C#N)OC3(C)C)cc2C)c(OC)c1` had a melting point of 242 to 244 °C.

`CC1=NNC(C)=C(C(=O)NN)C1c1ccccc1` (stereo unspecified) gave a melting point of 156 °C.

The molecule `CCCCCCCC(=O)OCC(COC(=O)CCCCCCC)OCn1cnc2c(=O)[nH]c(N)nc21` showed a melting point of 165 to 166 °C.

`S=C1CN=C(c2ccccc2Cl)c2cc(CCc3ccc(-c4ccccc4)cc3)sc2N1` registered a melting point of 187 to 189 °C.

With `Cc1ccccc1-n1c(-c2cc(-c3ccc(S(C)(=O)=O)cc3)c(N3CCOCC3)s2)nc2ccccc2c1=O`, the melting point lay within 255 to 258 °C.

On to `COc1cc2c(cc1OC)CC(C(=O)N1CCN(C(=O)c3cc(OC)c(OC)c(OC)c3)CC1)=C2`, for which the melting point is 183 to 185 °C.

In the case of `O=C(c1cccs1)c1cnn2c(-c3cccc(NCC4CC=CCC4)c3)ccnc12` (stereo unspecified), the melting point lay in the range of 78 to 81 °C.

For `C=CCOC1OC(C)C(OCc2ccccc2)C(OCc2ccccc2)C1OC1OC(C)C(OCc2ccccc2)C(OCc2ccccc2)C1O` (stereo unspecified), the melting point lay within 98 to 99 °C.

On to `CCCCOC(=O)NS(=O)(=O)CCc1c(C)nn(C)c1-n1ccc2cc(C(F)(F)F)cnc21`, for which the melting point was 122 to 123 °C.

Molecule `O=C(c1ccc(Cl)cc1)c1c(Cl)cc(CBr)cc1Cl` yielded a melting point of 69 to 73 °C.

Consider `CC(=O)N1CCN(c2ccc(O)cc2Br)CC1`, for which the melting point was in the range of 212 to 214 °C.

Take `CCc1ccc2c(CC(=O)O)c(C(=O)c3cc(C)ccn3)[nH]c2c1`: the melting point lay in the range of 204 to 207 °C.

In turn, `COc1cc(CNC(=O)c2cc3c(=O)n(Cc4ccc([N+](=O)[O-])nc4)c(=O)n(C)c3s2)ccn1` gave a melting point of 200 to 207 °C.

With `Cc1sc(-c2ccccc2F)nc1O`, the melting point lay within 159 to 160 °C.

Molecule `Cc1cncnc1N1CCC(C(N)=O)CC1` displayed a melting point of 182 to 184 °C.

`CCOC(=O)c1c(-c2ccccc2)nc2c(C(F)(F)F)cccc2c1O`: the melting point is 114 °C.

`CCCc1[nH]c2ccc(OC)cc2c1/C=C/C(=O)c1ccncc1` gave a melting point of 221 to 224 °C.

With `O=C(O)c1cc2cc(Cl)cc(Cl)c2nc1N[C@@H](Cc1ccccc1)C(=O)O`, the melting point lay within 218 to 223 °C.

As to `CC(Cc1c[nH]c2ccccc12)(NC(=O)OC1C2CC3CC(C2)CC1C3)C(=O)NC(CC(=O)O)Cc1ccccc1` (stereo unspecified), the melting point fell in the range of 123 to 137 °C.

With `Cc1nnc(-c2ccccn2)[nH]c1=O`, the melting point lay within 299 to 300 °C.

On to `Cc1ccccc1C(=O)Nc1ccc(C(=O)Cl)cc1`, for which the melting point lay within 135 to 141 °C.

In turn, `CC(CS(=O)(=O)c1ccc(-c2ccc3c(c2)OCO3)cc1)N(O)C=O` (stereo unspecified) showed a melting point of 200 to 201 °C.

In the case of `O=C(C=Cc1ccc(-c2nnn[nH]2)cc1)N1CCc2c([nH]c3ccccc23)C1c1ccc2c(c1)OCO2` (stereo unspecified), the melting point was 232 to 233 °C.

Turning to `CCOC(=O)C(=O)NC(=O)N1CC1C#N` (stereo unspecified), the melting point is 104 to 106 °C.

For `N#Cc1ccc(N(Cc2ccc(O)c(Br)c2)n2cnnc2)cc1-c1cc2ccccc2o1`, the melting point lay in the range of 147 to 148 °C.

`Cc1ccc2nc(C3(c4ccc(S(N)(=O)=O)cc4)C=C(C(F)F)NN3)sc2c1` (stereo unspecified): the melting point was 235 to 236 °C.

As for `CC(=O)Nc1ccccc1C(=O)Nc1cccc2cc(Br)cnc12`, the melting point was determined as 206 °C.

Regarding `O=c1[nH]c2cc(Cl)ccc2c(O)c1-n1ccccc1=O`, the melting point stood at 355 °C.

For `COc1ccc2c(c1)S(=O)c1nccnc1N2` (stereo unspecified), the melting point fell in the range of 240 to 241 °C.

`CCCCC(CC(=O)Nc1cc(C(N)=O)ccc1C(C)(C)C)c1ccc(OC)cc1OCC` (stereo unspecified) came in with a melting point of 184 to 186 °C.

On to `CCc1nn(C2CCCC2)c2cc(C(=O)NCC(=O)O)ccc12`, for which the melting point was in the range of 182 to 184 °C.

Molecule `COC(=O)[C@@H]1COC(=S)N1Cc1ccccc1` yielded a melting point of 101 to 102 °C.

As for `Cn1nnnc1SCCCSc1ncccc1O`, the melting point fell in the range of 87.5 to 88.5 °C.

As to `O=S(=O)(C(=CNc1cccc(NC=C(S(=O)(=O)c2ccccc2)S(=O)(=O)c2ccccc2)n1)S(=O)(=O)c1ccccc1)c1ccccc1`, the melting point is 299 to 300 °C.

The molecule `CC(C)(C)NC(=O)[C@@H]1CCCN1C(=O)[C@@H](O)[C@H](Cc1ccccc1)NC(=O)[C@H](CC(N)=O)NC(=O)COc1ccc(NC(=O)CNCCN2CCOCC2)cc1` returned a melting point of 123 to 132 °C.

As to `Cc1cc(C(=O)CCc2cc(-c3ccc(C(F)(F)F)cc3)nn2CC2CC2)ccc1OCC(=O)O`, the melting point fell in the range of 168 to 175 °C.

In turn, `CCCn1nc2c(N)nc3ccccc3c2c1CCCCO` returned a melting point of 135 to 136 °C.

Molecule `CCC1=NC(NC(=O)Nc2cccc(C)c2)C(=O)N(CC(=O)N2CC3CCC(CC3)C2)c2c(C)cccc21` (stereo unspecified) returned a melting point of 130 to 133 °C.

Turning to `CCCCCCCCCCCCCCCCCCOC(=O)c1ccc(N)cc1`, the melting point was in the range of 60 to 70 °C.

`C=C(C)OC(=O)N1C(=O)C(C)N(C(=O)OC(=C)C)c2ccncc21` (racemic): the melting point is 96 to 97 °C.

With `CS(=O)(=O)OCCCCc1ccc(OCc2coc(/C=C/c3ccccc3)n2)cc1`, the melting point fell in the range of 82 to 83 °C.

As for `O=C(O)Cn1c(-c2ccccc2)ncc(NC(=O)OCc2ccccc2)c1=O`, the melting point lay in the range of 179 to 183 °C.

The molecule `CCNc1nc2cc(Cc3c(C)nc4cc(C)ccn34)ccc2o1` gave a melting point of 209 to 211 °C.

For `CCCCN1CCc2ccccc2C1CNC(=O)c1cc(OC)c(OC)c(OC)c1` (stereo unspecified), the melting point was 81 to 83 °C.

On to `CCOC(=O)c1nccn1Cc1ccccc1N`, for which the melting point was 104 to 106 °C.

With `CNS(=O)(=O)NC(C)C`, the melting point fell in the range of 50 to 52 °C.

Consider `Oc1cccc(-c2nc3n(n2)Cc2ccccc2-3)c1`, for which the melting point is 251 to 252 °C.

For the molecule `O=C(Nc1ccc(C=C2c3ccccc3CCc3ccccc32)cc1)c1ccncc1`, the melting point was 252 °C.

Consider `CCNc1cc(NS(=O)(=O)c2ccc(N)cc2)nc(N)n1`, for which the melting point is 272 to 274 °C.

`COc1cc2c(c3c1OC(C)(C)C3)C(c1cccc(NC(=O)CCCCl)c1)=NC(C)(C)C2` returned a melting point of 146 to 148 °C.
